Assay results published in US10391101B2, “Derivatives of 7-fluoro-8-chloro-5H-dibenzo [B,E,] [1,4] diazepine and use thereof” (VALENTEK LLC, priority 2014, dated 2019).

Experiments:
[1] = Sub-chronic toxicity, morphological parameters of blood (neutrophil kinetics); format: in vivo; conditions: rats, intragastric 5 mg/kg daily for 28 days
From the text: The positive effect of the introduction of fluorine has been observed in pre-clinical studies of sub-chronic toxicity. […]. Increase in the number of neutrophils has been observed among rats after administration of aminoglutethimide, which also involves a high risk of agranulocytosis (Ng, W. et. al., Chem Res Toxicol, 2013, 26, 1272-81). Thus changes in the kinetics of neutrophils after intake of the medication can serve as a biomarker to predict the risk of agranulocytosis.
The neutrophil kinetics has been studied within comparative tests of sub-chronic toxicity. Studies have been conducted using rats upon intragastric administration of the substance at a dose of 5 mg/kg. The test substances were administered daily for 28 days. Each experimental group was composed of 10 animals of each sex.

H1 receptor = H1 receptor (Homo sapiens, UniProt P35367); experiment: H1 histamine receptor functional experiment, antagonism set-up (Fluo-4 NW Ca2+ fluorescence); format: cell-based
Experimental: (§1) The functional activity of compounds on the H4 receptor was determined according to the change in the cell conductibility induced by redistribution of intracellular calcium. The activity for H1 receptor was determined according to the fluorescence of Fluo-4 NW indicator introduced into cells induced by the change in Ca2+ ion concentration in the cytosol.
(§2) Functional experiments were performed in the set-up of agonism and antagonism. In the set-up of agonism the test substance was added directly to the cells expressing the receptor and was determined as the dependence of the response intensity on the substance concentration. Concentration at which the half-peak response (EC50) could be reached served as a measure of activity of agonists.
(§3) In the set-up of antagonism, the ability of test substances to block the action of agonists was assessed. For this purpose, cells were incubated with the test substances, then the reference agonists were added in the system and the functional response was determined.

H4 receptor = H4 receptor (Homo sapiens, UniProt Q9H3N8); experiment: H4 histamine receptor functional experiment, agonism set-up (cell conductibility); format: cell-based
Experimental: as §1, §2, §3

M4 muscarinic receptor = target: T1, M4 muscarinic receptor (Homo sapiens, UniProt P08173); experiment: cell-based
T1 sequence (P08173 1-479): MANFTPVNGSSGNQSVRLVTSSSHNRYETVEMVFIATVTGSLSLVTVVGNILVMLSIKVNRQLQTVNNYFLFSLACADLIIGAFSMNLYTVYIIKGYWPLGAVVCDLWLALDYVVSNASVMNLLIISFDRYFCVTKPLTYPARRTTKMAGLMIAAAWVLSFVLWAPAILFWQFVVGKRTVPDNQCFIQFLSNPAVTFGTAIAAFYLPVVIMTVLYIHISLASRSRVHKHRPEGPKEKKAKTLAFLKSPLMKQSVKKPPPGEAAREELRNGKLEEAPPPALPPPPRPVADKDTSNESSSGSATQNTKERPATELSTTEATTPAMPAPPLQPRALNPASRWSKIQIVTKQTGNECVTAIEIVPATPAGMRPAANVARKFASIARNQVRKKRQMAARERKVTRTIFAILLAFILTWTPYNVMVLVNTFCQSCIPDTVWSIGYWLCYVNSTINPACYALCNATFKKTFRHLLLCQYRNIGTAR
Experimental: as §2, §3
The curves of dependence of functional response on the concentration of compounds for the receptor were made; the level of second messenger—cAMP determined according to the fluorescence after the lysis of cell expressing the receptor was taken as a criterion.

D2 dopamine receptors = D2 dopamine receptors (Homo sapiens, UniProt P14416); experiment: cell-based; conditions: determined by IC50 values in the set-up of antagonism
Experimental: (§4) The response on cells expressing D2 receptors was determined according to the change in the cell conductibility induced by redistribution of intracellular calcium. For D4 receptor the level of second messenger—cAMP was taken as the criterion.

D4 dopamine receptors = target: T2, D4 dopamine receptors (Homo sapiens, UniProt P21917); experiment: D4 dopamine receptor antagonism, Kb from IC50 (cAMP level); format: cell-based
T2 sequence (P21917 1-419): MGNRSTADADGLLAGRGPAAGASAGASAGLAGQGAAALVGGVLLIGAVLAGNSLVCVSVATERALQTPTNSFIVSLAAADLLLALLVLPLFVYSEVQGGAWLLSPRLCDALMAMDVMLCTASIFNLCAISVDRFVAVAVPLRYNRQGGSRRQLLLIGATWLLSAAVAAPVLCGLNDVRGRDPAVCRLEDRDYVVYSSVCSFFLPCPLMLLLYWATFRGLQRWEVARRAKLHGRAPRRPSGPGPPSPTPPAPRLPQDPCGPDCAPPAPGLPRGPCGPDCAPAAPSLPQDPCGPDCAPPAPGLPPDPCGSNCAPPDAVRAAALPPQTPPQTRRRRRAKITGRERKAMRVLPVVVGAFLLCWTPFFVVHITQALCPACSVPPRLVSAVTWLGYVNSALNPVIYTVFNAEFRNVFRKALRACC
Experimental: as §4

M1 receptors = target: T3, M1 receptors (Homo sapiens, UniProt P11229); experiment: M1 receptor activation functional study (Fluo-4 NW Ca2+ fluorescence); format: cell-based; conditions: concentration-response curves, FIG. 2
T3 sequence (P11229 1-460): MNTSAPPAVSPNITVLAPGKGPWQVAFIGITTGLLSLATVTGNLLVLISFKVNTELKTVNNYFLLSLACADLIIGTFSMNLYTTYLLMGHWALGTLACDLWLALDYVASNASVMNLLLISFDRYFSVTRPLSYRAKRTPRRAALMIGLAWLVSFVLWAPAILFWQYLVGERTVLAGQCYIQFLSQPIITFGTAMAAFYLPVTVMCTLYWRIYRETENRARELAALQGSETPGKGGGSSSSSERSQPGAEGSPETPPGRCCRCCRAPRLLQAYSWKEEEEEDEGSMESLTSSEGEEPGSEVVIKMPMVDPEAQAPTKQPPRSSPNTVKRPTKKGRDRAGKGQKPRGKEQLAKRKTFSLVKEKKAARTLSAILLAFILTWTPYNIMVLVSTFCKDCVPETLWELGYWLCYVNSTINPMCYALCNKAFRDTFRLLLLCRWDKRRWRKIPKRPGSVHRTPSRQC
Experimental: The activity was determined according to the fluorescence of Fluo-4 NW indicator introduced into cells induced by the change in Ca2+ ion concentration in the cytosol.

[2] = 5-oxytriptophan hyperkinesia (head twitches); format: in vivo; conditions: mice, intragastric 1.0-10.0 mg/kg, 5-oxytriptophan 300 mg/kg i.p.
Experimental: It is known that the precursor of serotonin (5-oxytriptophan, 5-OT) causes a specific hyperkinesia in mice in the form of head-twitching with average duration of 30-60 minutes, which is explained by the activation of serotonergic system of the CNS. […] Each experimental group included 10 male mice weighing 20-22 g. The test substances were administered intragastrically at 1.0, 2.5, 5.0 and 10.0 mg/kg 30 minutes before the intraperitoneal administration of 5-oxytriptophan at a dose of 300 mg/kg. We counted the number of head twitches per 1 minute at intervals of 10 minutes during 60 minutes.

[3] = system: family of adrenergic receptors; experiment: Panel of G-protein-coupled receptors, adrenergic receptors; conditions: GPCR panel
From the text: In conjunction with the results of preliminary toxicological studies, the data indicates a reduction in the risk of autonomic dysfunctions, such as tachysystole, orthostatism, accommodation disorder, dysfunction of gastrointestinal tract and urination, weight gain, lack of coordination of muscle movements.

[4] = Sedation study, total distance traveled; conditions: CF-1 mice, oral 1, 5 and 10 mg/kg
[5] = Metabolism and distribution of fluoroclozapine in tissues; conditions: rats, single oral fluoroclozapine 10 mg/kg
[6] = Prepulse inhibition of acoustic startle response, ketamine-induced deficit; conditions: mice, ketamine 50 mg/kg i.p.

D2 dopamine receptors, sequence (P14416 whole entry): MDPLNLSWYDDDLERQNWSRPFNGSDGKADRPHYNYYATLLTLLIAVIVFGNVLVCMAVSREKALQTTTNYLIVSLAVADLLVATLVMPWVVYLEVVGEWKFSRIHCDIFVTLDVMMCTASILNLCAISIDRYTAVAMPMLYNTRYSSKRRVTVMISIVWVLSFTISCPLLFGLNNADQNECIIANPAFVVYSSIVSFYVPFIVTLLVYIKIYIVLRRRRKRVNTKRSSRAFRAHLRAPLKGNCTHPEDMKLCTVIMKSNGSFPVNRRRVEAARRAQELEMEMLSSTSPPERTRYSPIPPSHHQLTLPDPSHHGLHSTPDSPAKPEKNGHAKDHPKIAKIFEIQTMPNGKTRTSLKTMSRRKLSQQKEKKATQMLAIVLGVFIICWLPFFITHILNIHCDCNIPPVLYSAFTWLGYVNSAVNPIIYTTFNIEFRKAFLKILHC
H1 receptor, sequence (P35367 whole entry): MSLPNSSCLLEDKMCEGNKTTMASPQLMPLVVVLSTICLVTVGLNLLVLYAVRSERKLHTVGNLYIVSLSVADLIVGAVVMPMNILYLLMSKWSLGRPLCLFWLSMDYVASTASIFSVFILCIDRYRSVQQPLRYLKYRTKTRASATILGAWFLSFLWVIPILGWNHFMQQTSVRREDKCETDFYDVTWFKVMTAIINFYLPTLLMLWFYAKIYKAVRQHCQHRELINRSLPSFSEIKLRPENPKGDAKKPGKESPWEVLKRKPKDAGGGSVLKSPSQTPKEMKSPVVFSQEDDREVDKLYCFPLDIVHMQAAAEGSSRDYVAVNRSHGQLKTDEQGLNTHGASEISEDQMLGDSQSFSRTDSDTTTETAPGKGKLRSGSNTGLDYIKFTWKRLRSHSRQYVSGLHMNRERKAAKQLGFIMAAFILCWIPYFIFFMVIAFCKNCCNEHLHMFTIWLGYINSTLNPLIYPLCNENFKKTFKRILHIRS
H4 receptor, sequence (Q9H3N8 whole entry): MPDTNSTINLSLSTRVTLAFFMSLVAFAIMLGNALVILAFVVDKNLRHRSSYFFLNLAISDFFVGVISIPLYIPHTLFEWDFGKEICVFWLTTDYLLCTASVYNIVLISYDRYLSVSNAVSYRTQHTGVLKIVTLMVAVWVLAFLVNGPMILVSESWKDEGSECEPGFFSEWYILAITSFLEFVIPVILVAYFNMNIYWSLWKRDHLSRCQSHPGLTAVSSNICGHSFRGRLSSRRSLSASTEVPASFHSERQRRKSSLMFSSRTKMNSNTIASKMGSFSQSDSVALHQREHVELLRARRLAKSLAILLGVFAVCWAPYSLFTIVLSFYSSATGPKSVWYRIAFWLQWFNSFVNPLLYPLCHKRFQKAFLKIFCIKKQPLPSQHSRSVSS

What does the source list for `CN1CCN(C2=Nc3cc(Cl)c(F)cc3Nc3ccccc32)CC1` [Fluoroclozapine, 11-(4-methylpiperazine-1-yl)-7-fluoro-8-chloro-5H-dibenzo[b,e][1,4]diazepine]?
Basophils [1]: 1.0 ± 0.3%; ESR [1]: 4.2 ± 0.4 mm/h; Eosinophils [1]: 0.8 ± 0.4%; Hemoglobin [1]: 155.4 ± 2.1 g/L; Ht [1]: 43.2 ± 0.7%; Lymphocytes [1]: 67.8 ± 2.4%; MCH [1]: 18.4 ± 0.1 pg; MCHC [1]: 359.4 ± 1.9 g/L; MCV [1]: 51.3 ± 0.5 fL; Metamyelocytes [1]: 0.0 ± 0.0%; Monocytes [1]: 6.4 ± 0.5%; Myelocytes [1]: 0.0 ± 0.0%; Number of circulating neutrophils in peripheral blood versus control group [1]: did not differ so much different from that of the control group; PLT count [1]: 666.4 ± 26.0 10^9/l; Plasma cells [1]: 0.0 ± 0.0%; RBC count [1]: 8.43 ± 0.07 10^12/l; Rt [1]: 77.6 ± 4.6 10^9/l; Segmented neutrophils [1]: 20.8 ± 1.5%; Stab neutrophiles [1]: 3.2 ± 0.4%; WBC count [1]: 11.2 ± 0.8 10^9/l; IC50 (H1 receptor): 18 nM; EC50 (H4 receptor): 170 nM; EC50 (M4 muscarinic receptor; M4, agonism set-up): 16000 nM; IC50 (M4 muscarinic receptor; M4, antagonism set-up): 4800 nM; Kb (D2 dopamine receptors): 260 nM; Kb (D4 dopamine receptors; determined by IC50 values in the set-up of antagonism): 50 nM; Therapeutic window (Kb, D2/Kb, D4) (D4 dopamine receptors; ratio of the applicant's Kb values): 5.2; Functional response on M1 receptor (agonism) (M1 receptors): virtually no effect on M1 receptors; Inhibition of twitches induced by 5-OT [2]: most evident inhibition of twitches; Activity in relation to adrenergic receptors [3]: relatively weak activity; Sedation: total distance traveled by animals [4]: significantly lower; Concentrations of parent and metabolite in the brain [5]: consistent; Metabolism [5]: is metabolized to desmethylfluoroclozapine in rats; Restoration of PPI at a dose of 10 mg/kg ([6]; 10 mg/kg): comparable to clozapine activity at a dose of 5 mg/kg; Restoration of the PPI deficit caused by ketamine ([6]; doses of 5 and 10 mg/kg): statistically significant dose-dependent restoration of the PPI deficit
